The record followed here is patent US8507477B2, “3- and 6-quinolines with N-attached heterocyclic CGRP receptor antagonists” (Merck, Sharp & Dohme, Corp., priority 2008, dated 2013).

The structures appear in SMILES notation. pKi: −log10 of the molar value.

The pKi is the negative decadic logarithm of the Ki, by convention in mol/L.

recombinant human CL receptor/RAMP1, sequence (Q16602 23-461): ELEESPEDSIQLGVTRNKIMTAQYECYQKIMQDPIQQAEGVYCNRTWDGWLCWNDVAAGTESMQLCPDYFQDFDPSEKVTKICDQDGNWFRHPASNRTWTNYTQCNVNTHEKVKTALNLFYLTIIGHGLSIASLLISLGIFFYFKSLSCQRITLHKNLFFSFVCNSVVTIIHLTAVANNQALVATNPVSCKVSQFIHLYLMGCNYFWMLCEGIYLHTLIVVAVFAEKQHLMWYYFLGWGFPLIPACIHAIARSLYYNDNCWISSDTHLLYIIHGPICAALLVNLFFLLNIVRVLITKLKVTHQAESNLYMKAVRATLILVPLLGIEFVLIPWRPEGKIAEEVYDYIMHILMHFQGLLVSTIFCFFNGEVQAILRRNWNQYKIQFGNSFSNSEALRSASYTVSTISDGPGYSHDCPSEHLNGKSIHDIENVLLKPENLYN
recombinant human CL receptor/RAMP1, sequence (O60894 27-148): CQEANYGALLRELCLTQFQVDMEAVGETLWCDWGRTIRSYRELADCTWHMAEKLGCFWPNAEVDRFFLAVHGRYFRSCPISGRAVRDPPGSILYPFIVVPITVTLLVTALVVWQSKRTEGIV

This assay addresses recombinant human CL receptor/RAMP1 (Homo sapiens (Human), UniProt O60894+Q16602). Description: Recombinant receptor binding assay (125I-hCGRP displacement, membranes of HEK 293 cells). Conditions: membranes of HEK 293 cells expressing human CL receptor/RAMP1. The protocol: RECOMBINANT RECEPTOR: Human CL receptor (Genbank accession number L76380) was subcloned into the expression vector pIREShyg2 (BD Biosciences Clontech) as a 5′NheI and 3′PmeI fragment. Human RAMP1 (Genbank accession number AJ001014) was subcloned into the expression vector pIRESpuro2 (BD Biosciences Clontech) as a 5′NheI and 3′NotI fragment. HEK 293 cells (human embryonic kidney cells; ATCC #CRL-1573) were cultured in DMEM with 4.5 g/L glucose, 1 mM sodium pyruvate and 2 mM glutamine supplemented with 10% fetal bovine serum (FBS), 100 units/mL penicillin and 100 μg/mL streptomycin, and maintained at 37° C. and 95% humidity. Cells were subcultured by treatment with 0.25% trypsin with 0.1% EDTA in HBSS. Stable cell line generation was accomplished by co-transfecting 10 μg of DNA with 30 μg Lipofectamine 2000 (Invitrogen) in 75 cm^2 flasks. CL receptor and RAMP1 expression constructs were co-transfected in equal amounts. Twenty-four hours after transfection the cells were diluted and selective medium (growth medium+300 μg/mL hygromycin and 1 μg/mL puromycin) was added the following day. A clonal cell line was generated by single cell deposition utilizing a FACS Vantage SE (Becton Dickinson). Growth medium was adjusted to 150 μg/mL hygromycin and 0.5 μg/mL puromycin for cell propagation.
RECOMBINANT RECEPTOR BINDING ASSAY: Cells expressing recombinant human CL receptor/RAMP1 were washed with PBS and harvested in harvest buffer containing 50 mM HEPES, 1 mM EDTA and Complete protease inhibitors (Roche). The cell suspension was disrupted with a laboratory homogenizer and centrifuged at 48,000 g to isolate membranes. The pellets were resuspended in harvest buffer plus 250 mM sucrose and stored at −70° C. For binding assays, 20 μg of membranes were incubated in 1 ml binding buffer (10 mM HEPES, pH 7.4, 5 mM MgCl2, and 0.2% BSA) for 3 hours at room temperature containing […] ^125I-hCGRP (GE Healthcare) and antagonist. The assay was terminated by filtration through 96-well GFB glass fiber filter plates (PerkinElmer) that had been blocked with 0.05% polyethyleneimine. The filters were washed 3 times with ice-cold assay buffer (10 mM HEPES, pH 7.4 and 5 mM MgCl2). Scintillation fluid was added and the plates were counted on a Topcount (Packard). Non-specific binding was determined and the data analysis was carried out with the apparent dissociation constant (Ki) determined by using a non-linear least squares fitting the bound CPM data to the equation below:
[formula] Where Y is observed CPM bound, Ymax is total bound counts, Ymin is non specific bound counts, (Ymax−Ymin) is specific bound counts, % Imax is the maximum percent inhibition, % I min is the minimum percent inhibition, radiolabel is the probe, and the Kd is the apparent dissociation constant for the radioligand for the receptor as determined by Hot saturation experiments.
Consider `CC(C)N1C(=O)N(Cc2cnc3cc4c(cc3c2)C[C@@]2(C4)C(=O)Nc3ncccc32)C2(CCCc3ccccc32)C1=O` (stereo partly shown) [Example 5], for which the pKi is 10.24.

`CC(C)N1C(=O)N(Cc2cnc3cc4c(cc3c2)C[C@@]2(C4)C(=O)Nc3ncccc32)C2(CCCCCC2)C1=O` [Example 6]: the negative-log Ki (pKi) was 9.47.

Turning to `O=C1N(Cc2cnc3cc4c(cc3c2)C[C@@]2(C4)C(=O)Nc3ncccc32)[C@H](c2cc(F)cc(F)c2)CNC12CCCC2` [Example 8], the negative-log Ki (pKi) is 9.85.

Take `O=C1N(Cc2cnc3cc4c(cc3c2)C[C@@]2(C4)C(=O)Nc3ncccc32)[C@H](c2cc(F)cc(F)c2)CCC12CCCC2` [Example 9]: the pKi is 9.11.

For `O=C1N(Cc2cnc3cc4c(cc3c2)C[C@@]2(C4)C(=O)Nc3ncccc32)C(c2ccccc2Cl)=NC12CCCC2` [Example 10], the pKi was 8.89.

Consider `CC(C)N1C(=O)N(Cc2cnc3cc4c(cc3c2)C[C@@]2(C4)C(=O)Nc3ncccc32)C(C)(c2ccccc2)C1=O` (stereo partly shown) [Example 12], for which the pKi was 9.55.

With `CN1C[C@@](C)(c2cc(F)cc(F)c2)N(Cc2cnc3cc4c(cc3c2)C[C@@]2(C4)C(=O)Nc3ncccc32)C(=O)C12CCCC2` [Example 13], the negative-log Ki (pKi) is 10.21.

Take `O=C1N(Cc2cnc3cc4c(cc3c2)C[C@@]2(C4)C(=O)Nc3ncccc32)[C@H](c2cc(F)cc(F)c2)CCNC12CCCC2` [Example 15]: the pKi is 9.31.

In the case of `O=C1N(Cc2ccc3nc4c(cc3c2)C[C@@]2(C4)C(=O)Nc3ncccc32)[C@H](c2cc(F)cc(F)c2)CCNC12CCCC2` [Example 16], the pKi is 9.05.

Take `O=C1NCCN(Cc2cnc3cc4c(cc3c2)C[C@@]2(C4)C(=O)Nc3ncccc32)C1c1ccc(F)cc1` (stereo partly shown) [Example 17]: the pKi is 7.24.
